The record followed here is patent US9446119B2 (priority 2011, dated 2016).

For this assay, the system named is PBMCs. The class given is cell-based, human.

As to EVLFRLENHAETLRAA [Polypeptide 21], the “S.I. (stimulation index: mean spots per well containing polypeptide/mean spots per background wells)” value was determined as 2.5.
Turning to DVLFRLENHAETLRAA, the “S.I. (stimulation index: mean spots per well containing polypeptide/mean spots per background wells)” value turned out to be 0.7.
With “18 (GVIFLISVIVLVCSCDGVIFLISVIVLVCSCN) [compound 18]”, the “S.I. (stimulation index: mean spots per well containing polypeptide/mean spots per background wells)” value is recorded as 2.1.
As to CYILHSDYQLFSDAKA [Polypeptide 6], the “S.I. (stimulation index: mean spots per well containing polypeptide/mean spots per background wells)” value is given as 3.5 and the “number of subjects recognizing the peptide” value worked out at 3 subjects.
Consider LYNKPLYEVNAIITLI, for which the “S.I. (stimulation index: mean spots per well containing polypeptide/mean spots per background wells)” value came out at 1.
On to GVIFLISVIVLVCSCN, for which the “IFNγ response to the VARV version of the polypeptide” value is “detected” and the “S.I. (stimulation index: mean spots per well containing polypeptide/mean spots per background wells)” value stood at 2.3.
With CYIFHSDYQLFSDAKA, the “S.I. (stimulation index: mean spots per well containing polypeptide/mean spots per background wells)” value came out at 1.1.
On the same count and under the same terms, to DTFFRTSPMVIATTDI belongs 1.1.
Still for that read-out and setting: the figure for KADGDDNEETLKQRLT is 1.
